Read-outs that look alike come from different tables or passages of the source.
Experiments:
Format in all cases: cell-based
GIP-R = molecular target: T1, GIP-R (Homo sapiens, UniProt P48546); experiment: HitHunter cAMP assay (GIP-R); conditions: cAMP; for Emax: read-out: (Emax) GIP-R
T1 sequence (P48546 22-466): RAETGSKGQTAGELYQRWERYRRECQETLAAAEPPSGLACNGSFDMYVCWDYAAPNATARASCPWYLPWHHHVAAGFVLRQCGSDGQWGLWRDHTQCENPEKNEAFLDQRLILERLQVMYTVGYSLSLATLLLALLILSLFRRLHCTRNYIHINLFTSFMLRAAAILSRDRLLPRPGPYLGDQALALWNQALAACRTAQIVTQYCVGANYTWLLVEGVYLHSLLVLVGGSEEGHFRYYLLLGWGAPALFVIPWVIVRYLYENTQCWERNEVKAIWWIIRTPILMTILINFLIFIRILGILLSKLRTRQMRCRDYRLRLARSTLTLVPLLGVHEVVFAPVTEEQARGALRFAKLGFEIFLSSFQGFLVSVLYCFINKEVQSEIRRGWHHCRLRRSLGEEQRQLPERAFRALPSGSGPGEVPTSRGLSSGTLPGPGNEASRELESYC
Method in brief: (§1)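 Suspension cells (10,000/well) in HBSS with 10 mM HEPES, 625 μM IBMX, 0.2% BSA exposed to 22-point 2-fold agonist series in duplicate for 30 min at room temperature. cAMP measured by antibody immunocompetition with overnight development, luminescence read-out.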

GLP-1R [1] = molecular target: T2, GLP-1R (Homo sapiens, UniProt P43220); experiment: HitHunter cAMP assay (GLP-1R); conditions: cAMP; for Emax: read-out: (Emax) GLP-1R
Method in brief: as §1

GLP-1R [2] = molecular target: T2, GLP-1R; experiment: PathHunter β-arrestin assay
Method in brief: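 Cells (5,000/well) plated overnight, then exposed to a 22-point 2-fold agonist dilution series in medium with 0.2% BSA for 90 min at 37 °C, 5% CO2. PathHunter detection reagent added; after 3 h at room temperature in the dark, luminescence read.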

[3] = read-out: EC50 GIP-R/nM, Table 3
[4] = read-out: EC50 GIP-R/nM, Table 3A

T2 sequence (P43220 24-463): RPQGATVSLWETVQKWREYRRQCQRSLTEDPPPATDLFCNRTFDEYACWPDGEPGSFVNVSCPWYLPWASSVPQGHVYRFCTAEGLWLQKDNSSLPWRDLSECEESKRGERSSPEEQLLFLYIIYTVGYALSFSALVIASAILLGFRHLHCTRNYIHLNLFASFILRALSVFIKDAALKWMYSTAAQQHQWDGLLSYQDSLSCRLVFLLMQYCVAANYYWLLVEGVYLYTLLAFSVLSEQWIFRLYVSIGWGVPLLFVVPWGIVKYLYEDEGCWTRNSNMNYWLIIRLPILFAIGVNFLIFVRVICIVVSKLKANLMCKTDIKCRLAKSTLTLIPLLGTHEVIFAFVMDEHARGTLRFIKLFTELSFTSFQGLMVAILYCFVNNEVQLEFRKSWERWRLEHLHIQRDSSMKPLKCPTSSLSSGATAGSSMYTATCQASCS

Row | SMILES | Emax (GIP-R; Table 3) [%] | Emax (GIP-R; Table 3A) [%] | EC50 (GIP-R; [3]) [nM] | EC50 (GIP-R; [4]) [nM] | EC50 (GLP-1R [1]; EC50 GLP-1R/nM, Table 3) [nM] | EC50 (GLP-1R [1]; EC50 GLP-1R/nM, Table 3A) [nM] | Emax (GLP-1R [1]; Table 3) [%] | Emax (GLP-1R [1]; Table 3A) [%] | EC50 (GLP-1R [2]) [nM] | EC50 (GIP-R; EC50 GIP-R/nM, Table 3) [nM] | EC50 (GIP-R; EC50 GIP-R/nM, Table 3A) [nM] | EC50 (GIP-R; Table 3, read-out: EC50 GIP-R/nM) [nM] | EC50 (GIP-R; Table 3A, read-out: EC50 GIP-R/nM) [nM] | EC50 (GLP-1R [1]; Table 3, read-out: EC50 GLP-1R/nM) [nM] | EC50 (GLP-1R [1]; Table 3A, read-out: EC50 GLP-1R/nM) [nM] | EC50 (GLP-1R [2]; PathHunter β-arrestin assay, read-out: β-arrestin activity EC50) [nM]
1 | CC[C@H](C)[C@H](NC(=O)[C@H](CO)NC(=O)[C@H](Cc1ccc(O)cc1)NC(=O)[C@H](CC(=O)O)NC(=O)[C@H](CO)NC(=O)[C@@H](NC(=O)[C@H](Cc1ccccc1)NC(=O)[C@@H](NC(=O)CNC(=O)[C@H](CCC(=O)O)NC(=O)CSCC(=O)NCCN1C(=O)c2ccc(Cl)cc2C1=O)[C@@H](C)O)[C@@H](C)O)C(=O)N[C@@H](Cc1ccc(O)cc1)C(=O)N[C@@H](CC(C)C)C(=O)N[C@@H](CC(=O)O)C(=O)N[C@@H](CCCCN)C(=O)N[C@@H](CCC(N)=O)C(=O)N[C@@H](C)C(=O)N[C@@H](C)C(=O)NC(C)(C)C(=O)N[C@@H](CCC(=O)O)C(=O)N[C@@H](Cc1ccccc1)C(=O)N[C@H](C(=O)N[C@@H](CC(N)=O)C(=O)N[C@@H](Cc1c[nH]c2ccccc12)C(=O)N[C@@H](CC(C)C)C(=O)N[C@@H](CC(C)C)C(=O)N[C@@H](C)C(=O)NCC(=O)NCC(=O)N1CCC[C@H]1C(=O)N[C@@H](CO)C(=O)N[C@@H](CO)C(=O)NCC(=O)N[C@@H](C)C(=O)N1CCC[C@H]1C(=O)N1CCC[C@H]1C(=O)N1CCC[C@H]1C(=O)N[C@@H](CO)C(=O)N[C@@H](CCCCN)C(N)=O)C(C)C [Compound 161] | 58 to 107 | 58 to 107 | 1 to 100 | 1 to 100 | 10 to 100 | 10 to 100 | 89 to 101 | 89 to 101 | > 1000 |  |  |  |  |  |  | 
2 | CC[C@H](C)[C@H](NC(=O)[C@H](CO)NC(=O)[C@H](Cc1ccc(O)cc1)NC(=O)[C@H](CC(=O)O)NC(=O)[C@H](CO)NC(=O)[C@@H](NC(=O)[C@H](Cc1ccccc1)NC(=O)[C@@H](NC(=O)CNC(=O)[C@H](CCC(=O)O)NC(=O)CSCC(=O)NCCN1C(=O)c2cccc(Cl)c2C1=O)[C@@H](C)O)[C@@H](C)O)C(=O)N[C@@H](Cc1ccc(O)cc1)C(=O)N[C@@H](CC(C)C)C(=O)N[C@@H](CC(=O)O)C(=O)N[C@@H](CCCCN)C(=O)N[C@@H](CCC(N)=O)C(=O)N[C@@H](C)C(=O)N[C@@H](C)C(=O)NC(C)(C)C(=O)N[C@@H](CCC(=O)O)C(=O)N[C@@H](Cc1ccccc1)C(=O)N[C@H](C(=O)N[C@@H](CC(N)=O)C(=O)N[C@@H](Cc1c[nH]c2ccccc12)C(=O)N[C@@H](CC(C)C)C(=O)N[C@@H](CC(C)C)C(=O)N[C@@H](C)C(=O)NCC(=O)NCC(=O)N1CCC[C@H]1C(=O)N[C@@H](CO)C(=O)N[C@@H](CO)C(=O)NCC(=O)N[C@@H](C)C(=O)N1CCC[C@H]1C(=O)N1CCC[C@H]1C(=O)N1CCC[C@H]1C(=O)N[C@@H](CO)C(=O)N[C@@H](CCCCN)C(N)=O)C(C)C [Compound 162] | 103 to 107 | 103 to 107 | 0.1 to 10 | 0.1 to 10 | 10 to 100 | 10 to 100 | 42 to 46 | 42 to 46 | > 1000 |  |  |  |  |  |  | 
3 | CC[C@H](C)[C@H](NC(=O)[C@H](CO)NC(=O)[C@H](Cc1ccc(O)cc1)NC(=O)[C@H](CC(=O)O)NC(=O)[C@H](CO)NC(=O)[C@@H](NC(=O)[C@H](Cc1ccccc1)NC(=O)[C@@H](NC(=O)CNC(=O)[C@H](CCC(=O)O)NC(=O)CSCC(=O)NCCN1C(=O)c2cc3ccccc3cc2C1=O)[C@@H](C)O)[C@@H](C)O)C(=O)N[C@@H](Cc1ccc(O)cc1)C(=O)N[C@@H](CC(C)C)C(=O)N[C@@H](CC(=O)O)C(=O)N[C@@H](CCCCN)C(=O)N[C@@H](CCC(N)=O)C(=O)N[C@@H](C)C(=O)N[C@@H](C)C(=O)NC(C)(C)C(=O)N[C@@H](CCC(=O)O)C(=O)N[C@@H](Cc1ccccc1)C(=O)N[C@H](C(=O)N[C@@H](CC(N)=O)C(=O)N[C@@H](Cc1c[nH]c2ccccc12)C(=O)N[C@@H](CC(C)C)C(=O)N[C@@H](CC(C)C)C(=O)N[C@@H](C)C(=O)NCC(=O)NCC(=O)N1CCC[C@H]1C(=O)N[C@@H](CO)C(=O)N[C@@H](CO)C(=O)NCC(=O)N[C@@H](C)C(=O)N1CCC[C@H]1C(=O)N1CCC[C@H]1C(=O)N1CCC[C@H]1C(=O)N[C@@H](CO)C(=O)N[C@@H](CCCCN)C(N)=O)C(C)C [Compound 163] | 106 | 106 |  |  | 10 to 100 | 10 to 100 | 73 | 73 | > 1000 | < 0.1 | < 0.1 |  |  |  |  | 
4 | CC[C@H](C)[C@H](NC(=O)[C@H](CO)NC(=O)[C@H](Cc1ccc(O)cc1)NC(=O)[C@H](CC(=O)O)NC(=O)[C@H](CO)NC(=O)[C@@H](NC(=O)[C@H](Cc1ccccc1)NC(=O)[C@@H](NC(=O)CNC(=O)[C@H](CCC(=O)O)NC(=O)CSCC(=O)NCCN1C(=O)c2ccc(C(C)(C)C)cc2C1=O)[C@@H](C)O)[C@@H](C)O)C(=O)N[C@@H](Cc1ccc(O)cc1)C(=O)N[C@@H](CC(C)C)C(=O)N[C@@H](CC(=O)O)C(=O)N[C@@H](CCCCN)C(=O)N[C@@H](CCC(N)=O)C(=O)N[C@@H](C)C(=O)N[C@@H](C)C(=O)NC(C)(C)C(=O)N[C@@H](CCC(=O)O)C(=O)N[C@@H](Cc1ccccc1)C(=O)N[C@H](C(=O)N[C@@H](CC(N)=O)C(=O)N[C@@H](Cc1c[nH]c2ccccc12)C(=O)N[C@@H](CC(C)C)C(=O)N[C@@H](CC(C)C)C(=O)N[C@@H](C)C(=O)NCC(=O)NCC(=O)N1CCC[C@H]1C(=O)N[C@@H](CO)C(=O)N[C@@H](CO)C(=O)NCC(=O)N[C@@H](C)C(=O)N1CCC[C@H]1C(=O)N1CCC[C@H]1C(=O)N1CCC[C@H]1C(=O)N[C@@H](CO)C(=O)N[C@@H](CCCCN)C(N)=O)C(C)C [Compound 164] | 99 to 105 | 99 to 105 |  |  | 10 to 100 | 10 to 100 | 68 | 68 | > 1000 | 10 to 100 | 10 to 100 |  |  |  |  | 
5 | CC[C@H](C)[C@H](NC(=O)[C@H](CO)NC(=O)[C@H](Cc1ccc(O)cc1)NC(=O)[C@H](CC(=O)O)NC(=O)[C@H](CO)NC(=O)[C@@H](NC(=O)[C@H](Cc1ccccc1)NC(=O)[C@@H](NC(=O)CNC(=O)[C@H](CCC(=O)O)NC(=O)CCCNC(=O)CCN1C(=O)CSC1=O)[C@@H](C)O)[C@@H](C)O)C(=O)N[C@@H](Cc1ccc(O)cc1)C(=O)N[C@@H](CC(C)C)C(=O)N[C@@H](CC(=O)O)C(=O)N[C@@H](CCCCN)C(=O)N[C@@H](CCC(N)=O)C(=O)N[C@@H](C)C(=O)N[C@@H](C)C(=O)NC(C)(C)C(=O)N[C@@H](CCC(=O)O)C(=O)N[C@@H](Cc1ccccc1)C(=O)N[C@H](C(=O)N[C@@H](CC(N)=O)C(=O)N[C@@H](Cc1c[nH]c2ccccc12)C(=O)N[C@@H](CC(C)C)C(=O)N[C@@H](CC(C)C)C(=O)N[C@@H](C)C(=O)NCC(=O)NCC(=O)N1CCC[C@H]1C(=O)N[C@@H](CO)C(=O)N[C@@H](CO)C(=O)NCC(=O)N[C@@H](C)C(=O)N1CCC[C@H]1C(=O)N1CCC[C@H]1C(=O)N1CCC[C@H]1C(=O)N[C@@H](CO)C(=O)N[C@@H](CCCCN)C(N)=O)C(C)C [Compound 165] | 91 to 98 | 91 to 98 |  |  |  |  | 101 to 106 | 101 to 106 |  |  |  | 1 to 10 | 1 to 10 | 0.1 to 1 | 0.1 to 1 | > 1000

From patent publication US20260176320A1, “MODULATORS OF G-PROTEIN COUPLED RECEPTORS” (priority 2018, published 2026)
